Experimental findings from PubChem BioAssay (NCI) are described below.

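Protocol summary: plate cells (96-well), add compound at 5 concentrations, incubate 48 h, interpolate endpoints linearly. Here, GI50 denotes the concentration required for 50% inhibition of growth. The concentration for full growth arrest is given as TGI.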

Some test systems named below: HOP-62 NSCLC; UACC-62 melanoma; CCRF-CEM leukemia; MCF7 breast; NCI-H226 lung.
Common to all, as to assay: NCI tumour cell line growth inhibition, 48 h

In the case of `c1ccc(CSc2nc(N3CCOCC3)c3cn[nH]c3n2)cc1`, the TGI in the experiment on HOP-62 NSCLC is > 100 µM; in the experiment with UACC-62 melanoma, 30.3 µM; in the experiment on CCRF-CEM leukemia, 36 µM; in the experiment on MCF7 breast, > 100 µM; in the experiment on NCI-H226 lung, 73.1 µM.

As to `COC(=O)CCC12CCC(O1)c1ccccc12` (centres undefined), the TGI in the experiment with HOP-62 NSCLC, in the experiment on UACC-62 melanoma, in the experiment on CCRF-CEM leukemia, in the experiment on MCF7 breast and with NCI-H226 lung was > 100 µM in each case.

With `COC(=O)c1c(C)cccc1CC1Cc2c(C)cccc2C1=O` (centres undefined), the TGI was > 100 µM in the experiment on HOP-62 NSCLC, 89.9 µM with UACC-62 melanoma, 90.2 µM with CCRF-CEM leukemia and 95.8 µM in the experiment on NCI-H226 lung.

Regarding `Cc1cccc(NC(=S)N=Nc2c(O)[nH]c3ccccc23)c1`, the TGI in the experiment on HOP-62 NSCLC, with UACC-62 melanoma, in the experiment on CCRF-CEM leukemia, with MCF7 breast and in the experiment with NCI-H226 lung was > 100 µM each time.

In the case of `N/C(=N/n1c(=S)[nH]c2ccccc2c1=O)Nn1c(=S)[nH]c2ccccc2c1=O`, the TGI was 93.1 µM in the experiment with HOP-62 NSCLC; > 100 µM in the experiment on UACC-62 melanoma; 48.2 µM in the experiment on CCRF-CEM leukemia; > 100 µM in the experiment with MCF7 breast; 79 µM with NCI-H226 lung.

Turning to `OC1COC(n2c3ccc(Br)cc3c3ccc4c5ccccc5[nH]c4c32)C(O)C1O` (centres undefined), the TGI in the experiment on HOP-62 NSCLC turned out to be 14.7 µM; with UACC-62 melanoma, 1.53 µM; in the experiment on CCRF-CEM leukemia, 19.3 µM; in the experiment with MCF7 breast, 14.2 µM; with NCI-H226 lung, 30.3 µM.

For the compound `O=c1oc2ccccc2n1CCN1CCCCC1`, the TGI in the experiment with HOP-62 NSCLC, in the experiment with UACC-62 melanoma, with CCRF-CEM leukemia, in the experiment with MCF7 breast and in the experiment on NCI-H226 lung was > 100 µM throughout.

For `Cc1nc2c(sc3nc4ccccc4n32)c(=O)[nH]1`, the TGI in the experiment on HOP-62 NSCLC, in the experiment on UACC-62 melanoma, in the experiment with CCRF-CEM leukemia, in the experiment with MCF7 breast and with NCI-H226 lung was > 100 µM in each case.

For `Cc1ccc(Nc2cc(=O)[nH]c(=S)[nH]2)cc1`, the TGI with HOP-62 NSCLC, with UACC-62 melanoma, in the experiment with CCRF-CEM leukemia, with MCF7 breast and in the experiment with NCI-H226 lung was > 100 µM throughout.

Turning to `COc1ccc2c3c1OC1c4[nH]c5ccccc5c4CC4(O)C(C2)N(C)CCC314` (centres undefined), the TGI is > 100 µM with HOP-62 NSCLC, 57.3 µM with UACC-62 melanoma, 52.8 µM with CCRF-CEM leukemia and 60.4 µM in the experiment on MCF7 breast.

As for `COc1cc2c(c(OC)c1OC)-c1ccc(SC)cc1[C@H](OC(=O)c1ccccc1)CC2`, the TGI with HOP-62 NSCLC is > 100 µM; in the experiment with UACC-62 melanoma, > 100 µM; in the experiment on CCRF-CEM leukemia it was > 100 µM; with MCF7 breast it was > 33.2 µM; in the experiment with NCI-H226 lung it was 0.634 µM.

For `CN(C)Cc1cc(N=Nc2ccccc2)cc(CN(C)C)c1O`, the TGI with HOP-62 NSCLC was > 100 µM; in the experiment on UACC-62 melanoma, > 100 µM; with CCRF-CEM leukemia, 94.3 µM; in the experiment on NCI-H226 lung it was > 100 µM.

Regarding `C[Si](C)(OCCS(=O)(=O)O)C1S(=O)(=O)OCCOS1(=O)=O`, the TGI in the experiment with HOP-62 NSCLC, in the experiment with UACC-62 melanoma, with CCRF-CEM leukemia, with MCF7 breast and in the experiment with NCI-H226 lung was > 100 µM each time.

On to `CNC(=O)c1[nH]cnc1/N=N/N(C)N`, for which the TGI in the experiment with HOP-62 NSCLC, in the experiment with UACC-62 melanoma and in the experiment on NCI-H226 lung was > 100 µM throughout.

For the compound `Cn1c2ccccc2c(=NNc2ccc(C(=O)O)cc2)c2ccccc21`, the TGI in the experiment with HOP-62 NSCLC turned out to be 56.2 µM; with UACC-62 melanoma, 44.1 µM; in the experiment on CCRF-CEM leukemia, 40.5 µM; in the experiment with MCF7 breast it was 26.5 µM; in the experiment with NCI-H226 lung it was 54 µM.

On to `CC(=O)OCC1=C(C)C(OC(=O)C(OC(C)=O)[C@@H](NC(=O)c2ccccc2)c2ccccc2)CCC1(C)C` (some centres undefined), for which the TGI in the experiment on HOP-62 NSCLC, with UACC-62 melanoma, in the experiment with CCRF-CEM leukemia, in the experiment with MCF7 breast and with NCI-H226 lung was > 100 µM throughout.

In the case of `COC(=O)c1c(C)cccc1/C=C1\Cc2cc(C)cc(C)c2C1=O`, the TGI was 37.7 µM in the experiment with HOP-62 NSCLC; 48.6 µM in the experiment on UACC-62 melanoma; > 100 µM with CCRF-CEM leukemia; > 100 µM with MCF7 breast; > 100 µM with NCI-H226 lung.

For the compound `CC1(C)CC(=O)c2c(nc3ccc4ccccc4c3c2-c2ccc(NC(=O)CCC(=O)Nc3ccc(-c4c5c(nc6ccc7ccccc7c46)CC(C)(C)CC5=O)cc3)cc2)C1`, the TGI with HOP-62 NSCLC, in the experiment with CCRF-CEM leukemia, with MCF7 breast and in the experiment with NCI-H226 lung was > 100 µM in each case.

`CSc1ccc(/C=C2\N=C(c3ccccc3)N(c3nc4ccc(Sc5ccccc5)cc4[nH]3)C2=O)cc1`: the TGI in the experiment on HOP-62 NSCLC was 65.9 µM; in the experiment on UACC-62 melanoma, 39.1 µM; in the experiment with CCRF-CEM leukemia, 86.8 µM; in the experiment on MCF7 breast it was 45.9 µM; in the experiment with NCI-H226 lung, > 83.1 µM. In the experiment on NCI-H226 lung, the GI50 is 20.6 µM.

For the compound `CCN(CC)C(=S)SS(=O)(=O)c1ccc([N+](=O)[O-])cc1`, the GI50 in the experiment on HOP-62 NSCLC was 32.1 µM; in the experiment with NCI-H226 lung, 83.8 µM. In addition, the TGI in the experiment with HOP-62 NSCLC, with UACC-62 melanoma and in the experiment on NCI-H226 lung was > 100 µM in each case.

On to `CC1C[C@]2(C)C(=O)N(c3ccccc3)C(=N)[C@@H]2N(C)c2ccccc21` (some centres undefined), for which the TGI in the experiment with HOP-62 NSCLC, with UACC-62 melanoma, in the experiment on CCRF-CEM leukemia, in the experiment with MCF7 breast and with NCI-H226 lung was > 100 µM in each case.

On to `COc1cc2c(cc1OC)CC(N=[N+]=[N-])c1cc(OC)c(OC)cc1/C=C\2` (centres undefined), for which the TGI in the experiment on HOP-62 NSCLC, in the experiment with UACC-62 melanoma, with MCF7 breast and in the experiment on NCI-H226 lung was > 100 µM in each case.

On to `N#CC1(C#N)NC(c2ccsc2)C(C#N)(C#N)NC1c1ccsc1` (centres undefined), for which the TGI in the experiment with HOP-62 NSCLC, in the experiment on UACC-62 melanoma, with CCRF-CEM leukemia, with MCF7 breast and in the experiment on NCI-H226 lung was > 100 µM in each case.
